Target: T1, SARM1 (50-724) (Homo sapiens, UniProt Q6SZW1)
T1 construct: Purified SARM1 (50-724) with a final concentration of 2 nM was pre-incubated with a test compound
T1 sequence (Q6SZW1 50-724): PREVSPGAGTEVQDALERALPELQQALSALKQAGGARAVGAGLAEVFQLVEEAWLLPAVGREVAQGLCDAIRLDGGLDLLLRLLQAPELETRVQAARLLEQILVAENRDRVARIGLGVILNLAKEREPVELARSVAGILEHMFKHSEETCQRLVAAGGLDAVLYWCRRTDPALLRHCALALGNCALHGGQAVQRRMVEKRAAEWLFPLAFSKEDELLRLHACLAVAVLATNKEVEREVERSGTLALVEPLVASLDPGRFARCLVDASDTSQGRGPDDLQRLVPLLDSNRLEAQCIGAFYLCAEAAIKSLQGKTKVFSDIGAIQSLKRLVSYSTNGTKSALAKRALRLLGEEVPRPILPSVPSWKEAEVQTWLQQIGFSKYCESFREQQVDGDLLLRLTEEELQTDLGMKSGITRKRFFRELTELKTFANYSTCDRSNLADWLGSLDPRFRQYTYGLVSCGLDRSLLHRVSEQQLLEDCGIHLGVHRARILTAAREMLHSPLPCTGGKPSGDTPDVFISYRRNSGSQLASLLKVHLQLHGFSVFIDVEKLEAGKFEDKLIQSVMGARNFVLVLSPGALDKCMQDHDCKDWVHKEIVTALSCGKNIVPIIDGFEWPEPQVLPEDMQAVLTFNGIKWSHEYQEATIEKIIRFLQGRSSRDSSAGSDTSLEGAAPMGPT
Assay: SARM1 (50-724) enzymatic assay (LC-MS/MS)
Type: biochemical
Settings: Purified SARM1 (50-724) 2 nM, NMN as activator, NAD+ as substrate, 1 h at room temperature, read-out: IC50 (SARM1 inhibitory activity)
How it was run: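 Reaction buffer was Dulbecco's PBS. Compound and 2 nM human SARM1 (50-724) were pre-incubated 15 min at room temperature, then […] NAD^+ and 200 µM NMN activator were added for 1 h at room temperature. Acetonitrile (70%) stop, LC-MS/MS read-out, IC50 values.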

| IC50 [nM] | Structure (SMILES) |
| --- | --- |
| ≤ 100 | OCCOc1cc(-n2cnnc2-c2nc3cc(C(F)(F)F)ccc3[nH]2)c(OC(F)(F)F)cn1 [Compound 241, 2-((5-(trifluoromethoxy)-4-(3-(5-(trifluoromethyl)-1H-benzo[d]imidazol-2-yl)-4H-1,2,4-triazol-4-yl)pyridin-2-yl)oxy)ethan-1-ol] |
| ≤ 100 | Cc1ccnc(-n2cnnc2-c2nc3cc(C(F)(F)F)ccc3[nH]2)c1Cl [Example 66] |
| ≤ 100 | Fc1c(C2CC(F)(F)C2)ccc2[nH]c(-c3nncn3-c3cnccc3C(F)(F)F)nc12 [Compound 314, 5-(3,3-difluorocyclobutyl)-4-fluoro-2-(4-(4-(trifluoromethyl)pyridin-3-yl)-4H-1,2,4-triazol-3-yl)-1H-benzo[d]imidazole] |
| ≤ 100 | CS(=O)(=O)CCc1nnc(-c2nc3cc(C(F)(F)F)ccc3[nH]2)n1-c1cccc(Cl)c1Cl [Compound 138, 2-(4-(2,3-dichlorophenyl)-5-(2-(methylsulfonyl)ethyl)-4H-1,2,4-triazol-3-yl)-5-(trifluoromethyl)-1H-benzo[d]imidazole] |
| ≤ 100 | CN1CCN(c2ccc(Cl)c(-n3cnnc3-c3nc4cc(C(F)(F)F)ccc4[nH]3)n2)CC1=O [Compound 208, 4-(5-chloro-6-(3-(5-(trifluoromethyl)-1H-benzo[d]imidazol-2-yl)-4H-1,2,4-triazol-4-yl)pyridin-2-yl)-1-methylpiperazin-2-one] |
| ≤ 100 | Fc1cccc(-n2c(Cn3ccnn3)nnc2-c2nc3cc(C(F)(F)F)ccc3[nH]2)c1Cl [Compound 383, 2-(5-((1H-1,2,3-triazol-1-yl)methyl)-4-(2-chloro-3-fluorophenyl)-4H-1,2,4-triazol-3-yl)-5-(trifluoromethyl)-1H-benzo[d]imidazole] |
| > 1000 | N#Cc1c(-n2c(-c3cccc(Cl)c3Cl)n[nH]c2=O)[nH]c2ccc(C(F)(F)F)cc12 [Compound 41, 2-(3-(2,3-dichlorophenyl)-5-oxo-1,5-dihydro-4H-1,2,4-triazol-4-yl)-5-(trifluoromethyl)-1H-indole-3-carbonitrile] |
| > 1000 | FC(F)(F)c1ccc2[nH]c(-c3nncn3-c3cccc4nccn34)nc2c1 [Example 62] |
| > 1000 | O=c1ccc(-c2cccc(Cl)c2Cl)c(-c2nc3cc(C(F)(F)F)ccc3[nH]2)[nH]1 [Example 37] |
| ≤ 100 | FC(F)(F)c1ccc2[nH]c(-c3nncnc3-c3cccc(Cl)c3Cl)nc2c1 [Compound 307, 2-(5-(2,3-dichlorophenyl)-1,2,4-triazin-6-yl)-5-(trifluoromethyl)-1H-benzo[d]imidazole] |
| > 1000 | N#Cc1c(Cl)cccc1-n1cnnc1-c1nc2cc(C(F)(F)F)ccc2[nH]1 [Example 91] |
| > 1000 | FC(F)(F)c1cc2nc(-c3nncn3-c3cccc(Cl)c3Cl)[nH]c2cn1 [Compound 142, 2-(4-(2,3-dichlorophenyl)-4H-1,2,4-triazol-3-yl)-6-(trifluoromethyl)-3H-imidazo[4,5-c]pyridine] |
| > 1000 | N#CCc1cccc2[nH]c(-c3nncn3-c3cnccc3C(F)(F)F)nc12 [Compound 437, 2-(2-(4-(4-(trifluoromethyl)pyridin-3-yl)-4H-1,2,4-triazol-3-yl)-1H-benzo[d]imidazol-4-yl)acetonitrile] |
| ≤ 100 | OCC1CC1c1cc(F)c2[nH]c(-c3nncn3-c3cnccc3C(F)(F)F)nc2c1 (stereo not drawn) [Compound 416, (2-(7-fluoro-2-(4-(4-(trifluoromethyl)pyridin-3-yl)-4H-1,2,4-triazol-3-yl)-1H-benzo[d]imidazol-5-yl)cyclopropyl)methanol] |
| 100 to 500 | Cn1cc(-c2cccc(F)c2Cl)c(-c2nc3cc(CC(N)=O)ccc3[nH]2)cc1=O [Compound 179, 2-(2-(5-(2-chloro-3-fluorophenyl)-1-methyl-2-oxo-1,2-dihydropyridin-4-yl)-1H-benzo[d]imidazol-5-yl)acetamide] |
| ≤ 100 | Fc1cc(C2CC2C(F)F)cc2nc(-c3nncn3-c3cnccc3C(F)(F)F)[nH]c12 (stereo not drawn) [Compound 339, 5-(2-(difluoromethyl)cyclopropyl)-7-fluoro-2-(4-(4-(trifluoromethyl)pyridin-3-yl)-4H-1,2,4-triazol-3-yl)-1H-benzo[d]imidazole] |
| ≤ 100 | Cc1ccc2[nH]c(-c3cnccc3-c3cccc(Cl)c3Cl)nc2c1 [Example 23] |

| IC50 [nM] | Structure (SMILES) |
| --- | --- |
| ≤ 100 | CC1(c2ccc3[nH]c(-c4nncn4-c4cccc(Cl)c4Cl)nc3c2)CCO1 (stereo not drawn) [Compound 154, 2-(4-(2,3-dichlorophenyl)-4H-1,2,4-triazol-3-yl)-5-(2-methyloxetan-2-yl)-1H-benzo[d]imidazole] |
| ≤ 100 | Fc1cc(C2CC23CC3)cc2nc(-c3nncn3-c3cnccc3C(F)(F)F)[nH]c12 (stereo not drawn) [Compound 338, 7-fluoro-5-spiro[2.2]pentan-2-yl-2-[4-[4-(trifluoromethyl)-3-pyridyl]-1,2,4-triazol-3-yl]-1H-benzimidazole] |
| > 1000 | Cn1ccc(C(F)(F)F)c(-n2cnnc2-c2nc3cc(C(F)(F)F)ccc3[nH]2)c1=O [Compound 279, 1-methyl-4-(trifluoromethyl)-3-(3-(5-(trifluoromethyl)-1H-benzo[d]imidazol-2-yl)-4H-1,2,4-triazol-4-yl)pyridin-2(1H)-one] |
| ≤ 100 | CC(c1ccccc1)c1cc(F)c2[nH]c(-c3nncn3-c3cnccc3C(F)(F)F)nc2c1 (stereo not drawn) [Compound 431, 7-fluoro-5-(1-phenylethyl)-2-(4-(4-(trifluoromethyl)pyridin-3-yl)-4H-1,2,4-triazol-3-yl)-1H-benzo[d]imidazole] |
| ≤ 100 | FC(F)(F)Oc1ccc(OC2CC2)cc1-n1cnnc1-c1nc2cc(C(F)(F)F)ccc2[nH]1 [Compound 275, 2-(4-(5-cyclopropoxy-2-(trifluoromethoxy)phenyl)-4H-1,2,4-triazol-3-yl)-5-(trifluoromethyl)-1H-benzo[d]imidazole] |
| ≤ 100 | Clc1cccc(-n2cnnc2-c2nc3cc(C4CCOC4)ccc3[nH]2)c1Cl (stereo not drawn) [Example 128, 2-(4-(2,3-dichlorophenyl)-4H-1,2,4-triazol-3-yl)-5-(tetrahydrofuran-3-yl)-1H-benzo[d]imidazole] |
| 100 to 500 | Clc1cccc(-n2cnnc2-c2nc3cc(C4COC4)ccc3[nH]2)c1Cl [Example 55, 2-(4-(2,3-dichlorophenyl)-4H-1,2,4-triazol-3-yl)-5-(oxetan-3-yl)-1H-benzo[d]imidazole] |
| 100 to 500 | COc1cc(-c2nc3cc(C(F)(F)F)ccc3[nH]2)c(-c2cccc(Cl)c2Cl)cn1 [Compound 402, 2-(5-(2,3-dichlorophenyl)-2-methoxypyridin-4-yl)-5-(trifluoromethyl)-1H-benzo[d]imidazole] |
| ≤ 100 | FC(F)(F)Oc1cn2ccnc2cc1-n1cnnc1-c1nc2cc(C(F)(F)F)ccc2[nH]1 [Compound 232, 2-(4-(6-(trifluoromethoxy)imidazo[1,2-a]pyridin-7-yl)-4H-1,2,4-triazol-3-yl)-5-(trifluoromethyl)-1H-benzo[d]imidazole] |
| ≤ 100 | FC(F)(F)c1ccc2[nH]c(-c3nncn3-c3cnccc3C(F)(F)F)c(-c3ncccn3)c2c1 [Compound 428, 3-pyrimidin-2-yl-5-(trifluoromethyl)-2-[4-[4-(trifluoromethyl)-3-pyridyl]-1,2,4-triazol-3-yl]-1H-indole] |
| ≤ 100 | CC(C)(O)COc1ccc(OC(F)(F)F)c(-n2cnnc2-c2nc3cc(C(F)(F)F)ccc3[nH]2)n1 [Compound 255, 2-methyl-1-((5-(trifluoromethoxy)-6-(3-(5-(trifluoromethyl)-1 H-benzo[d]imidazol-2-yl)-4H-1,2,4-triazol-4-yl)pyridin-2-yl)oxy)propan-2-ol] |
| ≤ 100 | Cc1c(Cl)cncc1-n1cnnc1-c1nc2cc(C(F)(F)F)ccc2[nH]1 [Compound 58] |
| ≤ 100 | OCc1cc(-n2cnnc2-c2nc3cc(C(F)(F)F)ccc3[nH]2)c(OC(F)(F)F)cn1 [Compound 253, (5-(trifluoromethoxy)-4-(3-(5-(trifluoromethyl)-1H-benzo[d]imidazol-2-yl)-4H-1,2,4-triazol-4-yl)pyridin-2-yl)methanol] |
| ≤ 100 | FC(F)(F)c1ccc2[nH]c(-c3nnc(Cl)cc3-c3ccccc3Cl)nc2c1 [Compound 407, 2-(6-chloro-4-(2-chlorophenyl)pyridazin-3-yl)-5-(trifluoromethyl)-1H-benzo[d]imidazole] |
| ≤ 100 | OCC1(c2cc(F)c3[nH]c(-c4nncn4-c4cnccc4C(F)(F)F)nc3c2)CC1 [Compound 441, (1-(7-fluoro-2-(4-(4-(trifluoromethyl)pyridin-3-yl)-4H-1,2,4-triazol-3-yl)-1H-benzo[d]imidazol-5-yl)cyclopropyl)methanol] |
| 100 to 500 | C[S+]([O-])c1ccc2[nH]c(-c3nncn3-c3cccc(Cl)c3Cl)nc2c1 (stereo not drawn) [Compound 153, 2-(4-(2,3-dichlorophenyl)-4H-1,2,4-triazol-3-yl)-5-(methylsulfinyl)-1H-benzo[d]imidazole] |

From patent publication US20260258064A1 (SIRONAX LTD., priority 2023, published 2026)
